Reference: PubChem BioAssay AID328 (DTP/NCI, 2004)
Values joined by “and” are separate entries in the source; they are usually repeats but may differ in a detail not shown here. Equal entries are not always repeated. Toxic doses and inconclusive results are not listed. How the source made its calls: active means survival T/C of 150% or more; inactive means T/C below 125% in these data.

Tested on: BDF1 mice, P388 leukemia ip, median survival T/C
Assay: NCI In Vivo Anticancer Drug Screen. Data for tumor model P388 Leukemia (intraperitoneal) in B6D2F1 (BDF1) mice
Details: endpoint: median survival time, higher = longer survival
How it was run: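 T/C = treated-group survival ÷ vehicle-control survival; tumour transplanted into mice before dosing.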

[1] = dose: 50.0 mg/kg/injection, schedule: Q01DX009 (ip), vehicle: saline with Tween-80
[2] = dose: 100.0 mg/kg/injection, schedule: Q01DX009 (ip), vehicle: saline with Tween-80
[3] = dose: 200.0 mg/kg/injection, schedule: Q01DX009 (ip), vehicle: saline with Tween-80
[4] = dose: 100.0 mg/kg/injection, schedule: Q01DX001 (ip), vehicle: saline with Tween-80
[5] = dose: 200.0 mg/kg/injection, schedule: Q01DX001 (ip), vehicle: saline with Tween-80
[6] = dose: 100.0 mg/kg/injection, schedule: Q04DX003 (ip), vehicle: Klucel (hydroxypropylcellulose) (HPC)
[7] = dose: 200.0 mg/kg/injection, schedule: Q04DX003 (ip), vehicle: Klucel (hydroxypropylcellulose) (HPC)
[8] = dose: 100.0 mg/kg/injection, schedule: Q04DX003 (ip), vehicle: saline with Tween-80
[9] = dose: 200.0 mg/kg/injection, schedule: Q04DX003 (ip), vehicle: saline with Tween-80
[10] = dose: 400.0 mg/kg/injection, schedule: Q04DX003 (ip), vehicle: saline with Tween-80
[11] = dose: 25.0 mg/kg/injection, schedule: Q01DX009 (ip), vehicle: saline
[12] = dose: 50.0 mg/kg/injection, schedule: Q01DX009 (ip), vehicle: saline
[13] = dose: 100.0 mg/kg/injection, schedule: Q01DX009 (ip), vehicle: saline
[14] = dose: 400.0 mg/kg/injection, schedule: Q04DX003 (ip), vehicle: Klucel (hydroxypropylcellulose) (HPC)
[15] = dose: 200.0 mg/kg/injection, schedule: Q01DX009 (ip), vehicle: saline

Measured: T/C

NC(=O)c1cc([N+](=O)[O-])c(Cl)c([N+](=O)[O-])c1
inactive: dose: 2.5 mg/kg/injection, schedule: Q01DX009 (ip), vehicle: Klucel (hydroxypropylcellulose) (HPC) 109 % of control | dose: 5.0 mg/kg/injection, schedule: Q01DX009 (ip), vehicle: Klucel (hydroxypropylcellulose) (HPC) 109 % of control | dose: 10.0 mg/kg/injection, schedule: Q01DX009 (ip), vehicle: Klucel (hydroxypropylcellulose) (HPC) 104 % of control and 105 % of control | dose: 10.0 mg/kg/injection, schedule: Q04DX003 (ip), vehicle: Klucel (hydroxypropylcellulose) (HPC) 100 % of control | dose: 40.0 mg/kg/injection, schedule: Q04DX003 (ip), vehicle: Klucel (hydroxypropylcellulose) (HPC) 90 % of control

CCOC(=O)C1CC2(CCC1N)c1ccccc1-c1ccccc12 (stereo not drawn)
inactive: [1] 102 % of control | [2] 99 % of control | [3] 108 % of control

c1cc2c(cc1CNC1=NCCO1)OCO2
inactive: [4] 100 % of control | [5] 95 % of control | dose: 400.0 mg/kg/injection, schedule: Q01DX001 (ip), vehicle: saline with Tween-80 118 % of control

FC(F)(F)/C([S-])=C(/[S-])C(F)(F)F.FC(F)(F)/C([S-])=C(/[S-])C(F)(F)F.FC(F)(F)/C([S-])=C(/[S-])C(F)(F)F.FC(F)(F)/C([S-])=C(/[S-])C(F)(F)F.[Fe+3].[Fe+3]
inactive: dose: 50.0 mg/kg/injection, schedule: Q01DX001 (ip), vehicle: saline with Tween-80 100 % of control | [4] 104 % of control | [5] 104 % of control

C#CC1(O)CCC2C3CCc4cc(OC)ccc4C3CCC21C (stereo not drawn)
inactive: dose: 40.0 mg/kg/injection, schedule: Q01DX009 (sc), vehicle: saline with Tween-80 100 % of control | dose: 80.0 mg/kg/injection, schedule: Q01DX009 (sc), vehicle: saline with Tween-80 100 % of control | dose: 100.0 mg/kg/injection, schedule: Q04DX003 (sc), vehicle: saline with Tween-80 88 % of control | dose: 160.0 mg/kg/injection, schedule: Q01DX009 (sc), vehicle: saline with Tween-80 100 % of control | dose: 200.0 mg/kg/injection, schedule: Q04DX003 (sc), vehicle: saline with Tween-80 94 % of control | dose: 400.0 mg/kg/injection, schedule: Q04DX003 (sc), vehicle: saline with Tween-80 88 % of control

O=S1(=O)CC(S(=O)(=O)O)C(S(=O)(=O)O)C1 (stereo not drawn)
inactive: dose: 50.0 mg/kg/injection, schedule: Q04DX003 (ip), vehicle: Klucel (hydroxypropylcellulose) (HPC) 100 % of control | dose: 100.0 mg/kg/injection, schedule: Q01DX001 (ip), vehicle: saline 108 % of control | [6] 100 % of control | dose: 200.0 mg/kg/injection, schedule: Q01DX001 (ip), vehicle: saline 100 % of control | [7] 100 % of control | dose: 400.0 mg/kg/injection, schedule: Q01DX001 (ip), vehicle: saline 108 % of control

CCCCc1ccc(N2C(N)=NC(N)=NC2(C)C)cc1
inactive: dose: 6.25 mg/kg/injection, schedule: Q01DX005 (ip), vehicle: Klucel (hydroxypropylcellulose) (HPC) 111 % of control | dose: 12.5 mg/kg/injection, schedule: Q01DX005 (ip), vehicle: Klucel (hydroxypropylcellulose) (HPC) 110 % of control

O=Cc1cc(O)ccc1[N+](=O)[O-]
inactive: [1] 95 % of control | [2] 104 % of control | [8] 104 % of control | [3] 100 % of control | [9] 90 % of control

C[C@]12CC[C@@H](O)C[C@H]1CC[C@@H]1[C@@H]2CC[C@]2(C)C(=O)CC[C@@H]12
inactive: [2] 90 % of control | [8] 105 % of control | [3] 90 % of control | [9] 100 % of control | dose: 400.0 mg/kg/injection, schedule: Q01DX009 (ip), vehicle: saline with Tween-80 90 % of control | [10] 100 % of control

CC([CH2][Hg][Cl])c1ccccc1 (stereo not drawn)
inactive: dose: 3.13 mg/kg/injection, schedule: Q01DX009 (ip), vehicle: saline with Tween-80 122 % of control | dose: 4.16 mg/kg/injection, schedule: Q01DX009 (ip), vehicle: saline with Tween-80 118 % of control | dose: 6.25 mg/kg/injection, schedule: Q01DX009 (ip), vehicle: saline with Tween-80 113 % of control | dose: 9.38 mg/kg/injection, schedule: Q01DX009 (ip), vehicle: saline with Tween-80 109 % of control | dose: 12.5 mg/kg/injection, schedule: Q01DX009 (ip), vehicle: saline with Tween-80 109 % of control

O[C@]12CC=CC[C@]1(O)CC(N1CCCCC1)C2
inactive: [11] 99 % of control | [12] 124 % of control | [13] 92 % of control

CCCCCCCCCCC(=O)N1CCOCC1
inactive: dose: 25.0 mg/kg/injection, schedule: Q04DX003 (ip), vehicle: saline with Tween-80 100 % of control | dose: 50.0 mg/kg/injection, schedule: Q04DX003 (ip), vehicle: saline with Tween-80 104 % of control

N#Cc1ccc(NCCO)cc1
inactive: [8] 111 % of control | [9] 100 % of control | [10] 111 % of control

COC(=O)c1sccc1C=O
inactive: [6] 96 % of control | [7] 96 % of control | [14] 92 % of control

[Se]c1nccn2cnnc12
inactive: dose: 6.25 mg/kg/injection, schedule: Q01DX001 (ip), vehicle: saline with Tween-80 122 % of control | dose: 12.5 mg/kg/injection, schedule: Q01DX001 (ip), vehicle: saline with Tween-80 105 % of control | dose: 25.0 mg/kg/injection, schedule: Q01DX001 (ip), vehicle: saline with Tween-80 103 % of control

CO[C@H]1/C=C/O[C@@]2(C)Oc3c(C)c(O)c4c(O)c(c(/C=N/N5CCNCC5)c(O)c4c3C2=O)NC(=O)/C(C)=C\C=C\[C@H](C)[C@H](O)[C@@H](C)[C@@H](O)[C@@H](C)C(OC(C)=O)[C@@H]1C (stereo partly drawn)
inactive: [12] 114 % of control | [13] 114 % of control | [15] 114 % of control

COc1ccc(Cc2nccc3c(OC)c(OC)ccc23)cc1OC
inactive: [11] 116 % of control | [12] 106 % of control and 119 % of control | dose: 50.0 mg/kg/injection, schedule: Q04DX003 (ip), vehicle: saline 103 % of control | dose: 75.0 mg/kg/injection, schedule: Q01DX009 (ip), vehicle: saline 119 % of control | [13] 119 % of control | dose: 100.0 mg/kg/injection, schedule: Q04DX003 (ip), vehicle: saline 103 % of control | [15] 87 % of control | dose: 200.0 mg/kg/injection, schedule: Q04DX003 (ip), vehicle: saline 87 % of control

Cc1ccc(C(CCC#N)OC(C)C)cc1 (stereo not drawn)
inactive: dose: 100.0 mg/kg/injection, schedule: Q01DX009 (ip), vehicle: Klucel (hydroxypropylcellulose) (HPC) 86 % of control | [6] 100 % of control | dose: 200.0 mg/kg/injection, schedule: Q01DX009 (ip), vehicle: Klucel (hydroxypropylcellulose) (HPC) 109 % of control | [7] 109 % of control | dose: 400.0 mg/kg/injection, schedule: Q01DX009 (ip), vehicle: Klucel (hydroxypropylcellulose) (HPC) 113 % of control | [14] 109 % of control

CC(C)C(O)(C(=O)OCC1=CC[N+]2([O-])CCC(O)C12)C(C)O (stereo not drawn)
inactive: dose: 200.0 mg/kg/injection, schedule: Q01DX006 (ip), vehicle: water 110 % of control | dose: 800.0 mg/kg/injection, schedule: Q01DX006 (ip), vehicle: water 100 % of control | dose: 1600.0 mg/kg/injection, schedule: Q01DX006 (ip), vehicle: water 94 % of control
